Test results from patent US12285402B2, “Compositions and methods for treating pulmonary disorders” (GNT Pharma Co., Ltd., priority 2021, dated 2025).

Legend:
[1] = system: PPE-induced COPD model mice; experiment: Porcine pancreatic elastase (PPE)-induced emphysema model, post-treatment; type: in vivo, C57BL/6J mice; settings: started 3 days after PPE, sacrifice day 21
Procedure: Porcine Pancreatic Elastase (PPE)-induced emphysema model was used to measure the post-treatment effects of ATPB in COPD model mice. C57BL/6J mice were intratracheally injected with PPE (0.8 U per mouse) in PBS via a micropipette. The mice were randomly divided into […]: (A) emphysema group, which was exposed to intratracheal PPE; (B) emphysema+ATPB (5 mg/kg ATPB, PO, bid); (C) emphysema +ATPB (10 mg/kg ATPB, PO, bid); (D) emphysema +roflumilast (10 mg/kg, PO, qd); and (E) emphysema +prednisolone (1 mg/kg, PO, qd). All treatments were started 3 days after the PPE injection. Mice were sacrificed 21 days after the PPE injection.
(§1) Rats and mice were sacrificed, and BALF was obtained by cannulating the trachea and lavage three times with 2 mL DPBS. BALF cells were centrifuged at 1000×g for 10 min at 4° C. The supernatants were collected and stored at −80° C. to measure inflammatory factors. The pelleted BALF cells were resuspended in 1 mL PBS and quantified using a hematology analyzer (Mindray Medical International Ltd., Shenzhen, China).

[2] = system: smoking-induced COPD rats; experiment: Rat model of COPD by smoke exposure and intratracheal LPS; type: in vivo; settings: for IL-6 gene expression in the lungs (RT-PCR) / MCP-1 gene expression in the lungs (RT-PCR) / TNF-α gene expression in the lungs (RT-PCR): FIG. 7, P<0.01 or P<0.05
Procedure: As described previously, the rat model of COPD was established by smoke exposure and intratracheal instillation of lipopolysaccharide (LPS). Experimental rats, including the COPD and drug-treated groups (10 mg/kg ATPB), underwent whole-body exposure to tobacco smoke from 10 cigarettes in a tobacco smoke chamber (90×40×30 cm, made of Plexiglas) twice a day with 2-hour smoke-free intervals, every day for 12 weeks.
Animals from the two smoke-exposed groups were administered 180 μg/180 μL of LPS solution intratracheally on two occasions, on the first and 14th days of tobacco smoke exposure. Additionally, rats in the ATPB group were orally administered ATPB (10 mg/kg ATPB). All rats were sacrificed on the 91st day.
as §1
Total RNA from the lung tissue was extracted using TRIzol reagent (Invitrogen) according to the manufacturer's instructions. cDNA was synthesized using a cDNA Synthesis Kit (Life Technologies). SYBR Green Master Mix (Thermo Fisher) was used for PCR amplification on a StepOnePlus Real-Time PCR System (Applied Biosystems, Foster City, Calif., USA).
The lungs of the rats were removed at week 12 and fixed in 10% neutral buffered formalin for histopathological analysis. Formalin-fixed tissues were embedded in paraffin, sectioned at […], and stained with hematoxylin and eosin (HE) and Alcian blue-periodic acid-Schiff (AB-PAS) to reveal histopathological lesions.

OVA-challenged mice = experiment: OVA-induced mouse asthma model; type: in vivo, Balb/C mice
Procedure: Seven-week-old female Balb/C mice were sensitized by intraperitoneal injection (IP, 200 μL/mouse) of 100 μg OVA complexed with aluminum potassium sulfate on days 0, 7, and 14. On days 26, 27, and 28, mice were challenged with 5% aerosolized OVA in 48 mL sterile phosphate-buffered saline (PBS). The control group received sterile PBS with aluminum potassium sulfate via the IP route on days 0, 7, 14, and 48 mL of aerosolized sterile PBS on days 26, 27, and 28. Mice in the ATPB group were orally administered 10 mg/kg bid ATPB on days […], 27, 28, and 29.
as §1

[3] = ATPB 10 mg/kg, vs COPD rats, FIG. 6
[4] = ATPB 10 mg/kg bid oral, vs OVA-challenged mice, FIG. 2
[5] = ATPB 10 mg/kg bid oral, vs vehicle group, FIG. 3
[6] = ATPB 10 mg/kg, vs OVA-challenged mice, FIG. 4

## O=C(Nc1c(Cl)cncc1Cl)c1ccc(OC(F)F)c(OCC2CC2)c1 [roflumilast]
[1]; roflumilast 10 mg/kg PO qd, FIG. 8
  number of WBC in BALF: Neither roflumilast nor prednisolone reduced the WBC count

## CC(=O)Oc1ccc(NCCc2ccc(C(F)(F)F)cc2)cc1C(=O)O [ATPB, 2-acetoxy-5-[2-(4-trifluoromethyl-phenyl)-ethylamino]-benzoic acid]
[2]; ATPB 10 mg/kg oral, LPS and chronic smoking, 12 weeks, vs vehicle group, FIG. 5
  number of WBCs in BALF: markedly reduced
[2]; ATPB 10 mg/kg oral, vs COPD group, FIG. 6
  alveolar sacs and alveolar spaces enlargement (H&E lung histopathology): relieved
[2]; [3]
  goblet cell proliferation (PAS+ cells): decreased
  mucous secretion (PAS staining): reduced levels
[2]; vs COPD group
  IL-6 gene expression in the lungs (RT-PCR): decreased
  MCP-1 gene expression in the lungs (RT-PCR): decreased
  TNF-α gene expression in the lungs (RT-PCR): decreased
[1]; 10 mg/kg ATPB PO bid, vs vehicle, FIG. 8, P<0.05
  number of WBC in BALF: significantly reduced
OVA-challenged mice; [4]
  IL-4 production in BALF (ELISA): significantly downregulated
  IL-5 production in BALF (ELISA): significantly downregulated
OVA-challenged mice; ATPB 10 mg/kg bid oral, vs OVA-challenged mice, serum 24 h after last OVA challenge
  production of IgE in the serum (ELISA): significantly reduced
OVA-challenged mice; [5]
  EO (eosinophil) cell count in BALF: markedly reduced
  LY (lymphocyte) cell count in BALF: markedly reduced
  MO (monocyte) cell count in BALF: markedly reduced
  WBC cell count in BALF: markedly reduced
OVA-challenged mice; [6]
  cell infiltration into peribranchial lung lesions (H&E staining): notably downregulated
  mucus hypersecretion in the bronchial airways (PAS staining): attenuated
OVA-challenged mice; after last OVA challenge, FIG. 3 legend
  OVA-induced inflammatory cell counts in BALF: significantly reduced
OVA-challenged mice; mouse asthma model
  OVA-induced eotaxin production: attenuated
OVA-challenged mice; serum 24 h after last OVA aerosol challenge, FIG. 1
  OVA-specific IgE levels in serum (ELISA): significantly lowered

## C[C@]12C=CC(=O)C=C1CC[C@@H]1[C@@H]2[C@@H](O)C[C@@]2(C)[C@H]1CC[C@]2(O)C(=O)CO [prednisolone, reference compound]
[2]; vs COPD group
  IL-6 gene expression in the lungs (RT-PCR): decreased
  MCP-1 gene expression in the lungs (RT-PCR): decreased
  TNF-α gene expression in the lungs (RT-PCR): decreased
[1]; prednisolone 1 mg/kg PO qd, FIG. 8
  number of WBC in BALF: Neither roflumilast nor prednisolone reduced the WBC count
